The values below come from patent US8114895B2, “Use of bipyridine compound ‘Caerulomycin A’ derivatives and analogs thereof as immunosuppressive agents” (Council of Science and Industrial Research, priority 2005, dated 2012).

Molecules are shown by their SMILES. Where two headings read alike, the source gives them in different places.

The test system of assay [1] is Th2 clones. The assay can be described thus: Kinetics of the effect on the proliferation of Th2 clones. It is filed as cell-based. The settings on record: anti-CD3 Ab 0.5 μg/ml, read-out: inhibitory effect on Th2 cells. On the procedure:
Th2 clones (5×10^4/well) were stimulated with anti-CD3 Ab (0.5 μg/ml). Caerulomycin A (0.05 μg/ml) was added either at the initiation of the cultures (time 0) or at various time points (4 h-48 h) After 48 h of the cultures, [^3H]-thymidine was added, and its incorporation was measured 12 h later.

For assay [2], the system named is Th2 clones. The assay can be described thus: Proliferation of Th2 clones. As to conditions: stimulated with anti-CD3 Ab or conalbumin pulsed γ-irradiated splenocytes; Caerulomycin A 0.00625-0.1 μg/ml. It is filed as cell-based. As for the experimental part:
The proliferation of Th2 clones was measured using cells harvested on 7-9 days after stimulation with antigen pulsed splenocytes. The dead cells were removed by ficoll-histopaque. Th2 clones (5×10^4 cells/well) were either stimulated with anti-CD3 Ab (0.1 μg/ml and 0.5 μg/ml) or incubated with γ-irradiated (3000 R) syngeneic splenocytes (5×10^5 cells/well) and conalbumin (100 μg/ml) in 200 μl RPMI/FCS-10% medium and with various concentrations of Caerulomycin A (0.00625-0.1 μg/ml). The control cultures consisting of Th2 cells incubated with conalbumin alone and γ-irradiated syngeneic splenocytes (no antigen) were also kept. The cultures were kept in a flat bottom 96 well microtitre plate and the cells were incubated at 37° C. and 7% CO2. After 48 h, the cultures were pulsed with 0.5 μCi of [^3H]-thymidine and harvested 16 h later. Radioactivity incorporated was measured by liquid scintillation counting and data are expressed as mean counts per minute (cpm).

Assay [3] relates to D10G4.1 Th2 clones. The assay can be described thus: IL-4 release by Th2 clones. It is filed as cell-based. The settings on record: stimulated with anti-CD3 Ab (0.1 and 0.5 μg/ml) or conalbumin pulsed APC.
In assay [4] the test system is antigen specific T cells. The assay can be described thus: In vivo proliferation of antigen specific T cells (OVA-primed mice injected with drug, splenocytes cultured ex vivo). As to conditions: for proliferation of cells from antigen-primed animals injected with drug versus animals not administered drug: 25-100 μg/mice/day i.p. for 7 days. Also noted: species or system BALB/c mice. As for the experimental part:
FIG. 1: Different groups, each comprising five animals were immunized with OVA, followed by CaeA administration daily for 7 days before mice were sacrificed. Splenocytes (2×10^5 cells/well) were isolated and cultured in vitro with 100 μg/ml OVA and varied doses of CaeA. After 72 h, [^3H]-thymidine was added, and its incorporation was measured 16 h later.
FIG. 2: In another set of experiment, three different groups were immunized with OVA followed by administration of CaeA (25 μg/mice) in one of the group and Alcohol (vehicle control) in another group, daily for 7 days before mice were sacrificed. Splenocytes (2×10^5 cells/well) were isolated and cultured in vitro alone or with OVA 100 and 200 μg/ml (1.2). Each point represents the mean±SEM of triplicate determinations from one of the three representative experiments.
OVA (2 mg/ml) was dissolved in PBS (0.01 M, pH 7.2) and emulsified in Freund's complete adjuvant (FCA). Emulsion (100 μl) was then injected intraperitoneally (i.p.) in 7 groups, comprising 5 BALB/c mice in each set. Four groups of animals were injected intraperitoneally daily with Caerulomycin A (25, 50, 75, 100 μg/100 μl/mice). The control groups were immunized intraperitoneally with 100 μl each of PBS and ethanol-PBS. After seven days, mice were sacrificed and splenocytes were isolated and pooled for in vitro proliferation.
Ovalbumin (3 mg/ml) was dissolved in PBS (pH 7.2) and emulsified in Freund's complete adjuvant (FCA). Emulsion (100 μl) was then injected intraperitoneally (i.p.) in different groups, comprising 5 BALB/c mice in each set. Four groups of animals were injected intraperitoneally daily with caerulomycin A (25, 50, 75, 100 μg/100 μl/mice). The control groups were immunized intraperitoneally with ethanol-PBS.
After seven days, mice were sacrificed and splenocytes were pooled and used for proliferation assays. Splenocytes (2×10^5 cells/well) were cultured with OVA (100 μg/ml) in 200 μl RPMI/FCS-10% medium and with various concentrations of caerulomycin A (0.1-0.0003 μg/ml). The control cultures consisting of splenocytes incubated with different concentrations of caerulomycin A (no OVA), OVA and medium were also kept. After 72 h, the cultures were pulsed with 1 μCi of [^3H]-thymidine and harvested 14 h later. Radioactivity incorporated was measured by liquid scintillation counting and data are expressed as mean counts per minute (cpm).
The mice were administered with different doses of caerulomycin A for 7 days (FIG. 1). The animals were sacrificed and splenocytes were cultured in vitro with antigen and different concentrations of caerulomycin A (0.00625-0.10 μg/ml).

Assay [5] concerns OVA-specific T cells. The assay can be described thus: Cytokine secretion by OVA-primed splenocytes (ELISA). It is filed as cell-based, BALB/c mice. The settings on record: OVA 200 μg/ml, supernatants after 48 h. On the procedure: OVA (2 mg/ml) was dissolved in PBS (0.01 M, pH 7.2) and emulsified in Freund's complete adjuvant (FCA). Emulsion (100 μl) was then injected intraperitoneally in a group consisting of 5 BALB/c mice. The control group was injected with PBS alone. After seven days, mice were sacrificed and splenocytes were pooled and used for proliferation and cytokine assays. Splenocytes (5×10^5 cells/well) were cultured with OVA (200 μg/ml) in 200 μl RPMI/FCS-10% medium and with various concentrations of Caerulomycin A (0.0003-0.1 μg/ml). The control cultures consisting of splenocytes incubated with different concentrations of Caerulomycin A (no OVA), OVA and medium were also kept. The culture supernatants were collected after 48 h and cytokines were measured by ELISA.
(In an ELISA, binding on a coated surface is turned into a signal by an enzyme label.)

Regarding `COc1cc(/C=N/O)nc(-c2ccccn2)c1` [Caerulomycin A, (E)-4-methoxy-2,2′-bipyridine-6-carbaldehyde oxime], the inhibition at 0.05 µg/mL in assay [1] (0.05 μg/ml added after 42 h) was 56%; in assay [1] (0.05 μg/ml added before 16 h of the initiation of the cultures), 77 to 90%. Further, in assay [2], the “proliferation of Th2 clones” value is given as “substantially restricted the proliferation”. Also, the “release of IL-4” value in assay [3] is listed as “suppressed the release”. Moreover, the “growth of cells from injected mice versus PBS-ethanol animals” value in assay [4] (25 μg/mice/day for 7 days, FIG. 2) is “significant level of retardation in the growth”. The “proliferation of cells from antigen-primed animals injected with drug versus animals not administered drug” value in assay [4] (FIG. 1) was “substantial inhibition”; in assay [4] (FIG. 1, listed as caerulomycin A), “substantial inhibition in the proliferation”. Moreover, the “proliferation of cells from treated animals incubated in vitro with drug” value in assay [4] (cells incubated with 0.10 μg/ml of caerulomycin A, FIG. 1) is listed as “Nearly complete inhibition”. The “optimum dosage required in vivo” value in assay [4] (mouse, in vivo) was 5.0 mg/kg/body wt. Also, the “secretion of IFN-γ” value in assay [5] (Caerulomycin A 0.05-0.1 μg/ml) is “significantly suppressed the secretion”. Also, the “production of IL-10” value in assay [5] is recorded as “failed to induce any change”.
